According to patent US12509444B2, “Compounds and methods for CD73 modulation and indications therefor” (Plexxikon Inc., priority 2019, dated 2025):

Assays:
human CD73 = biological target: T1, human CD73 (Homo sapiens, UniProt P21589); assay: Inhibitor activity against CD73 in cell based assay (CD73 expressing CHO-K1 cells); conditions: CHO-K1 cells expressing human CD73, 150 μM AMP, 4 hours of incubation; read-out: CHO-K1 CELL VARIANT: CD73 IC50
T1 construct: expressed in transfected cells
T1 sequence (P21589 27-549): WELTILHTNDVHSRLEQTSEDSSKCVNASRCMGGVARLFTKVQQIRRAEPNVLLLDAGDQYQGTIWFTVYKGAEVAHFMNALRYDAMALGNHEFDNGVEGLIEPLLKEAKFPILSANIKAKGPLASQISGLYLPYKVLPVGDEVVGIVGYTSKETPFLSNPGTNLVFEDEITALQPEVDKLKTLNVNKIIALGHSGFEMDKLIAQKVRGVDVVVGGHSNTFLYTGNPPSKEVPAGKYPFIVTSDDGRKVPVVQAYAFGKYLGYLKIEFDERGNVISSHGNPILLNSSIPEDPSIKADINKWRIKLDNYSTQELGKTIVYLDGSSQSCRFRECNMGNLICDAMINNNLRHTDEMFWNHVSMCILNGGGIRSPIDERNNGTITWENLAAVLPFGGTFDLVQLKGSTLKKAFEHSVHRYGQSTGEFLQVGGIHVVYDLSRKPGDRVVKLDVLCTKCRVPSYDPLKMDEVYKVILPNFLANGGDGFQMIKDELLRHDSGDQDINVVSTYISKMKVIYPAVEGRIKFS
Procedure: Determine Inhibitor Activity Against CD73 in Cell Based Assay
CD73 expressing CHO-K1 cell clones were generated upon stable transfection of a plasmid expressing human CD73 under the control of CMV promoter. Cells were selected in Ham's F-12K (Kaighn's) media supplemented with 10% fetal bovine serum and 1 mg/ml G418 at 37° C. in a humidified incubator supplied with 5% CO2. The assays were performed as follows. Cells were seeded in a 96 well plate in 50 μL of culture media at a density of 1×10^4 per well. Compound at a maximal concentration of 5 mM was serially diluted 1:3 in DMSO for a total of 8 point titration. A 2 μL aliquot of each dilution point was added to 248 μL culture media and 25 µL was added to each well, providing 10 μM compound at the maximum concentration point. AMP was diluted in culture media and 25 μL was added to each well with a final concentration of 150 μM. 4 wells containing 0.2% DMSO treated cells and AMP served as high controls and 4 wells containing media only with 0.2% DMSO and AMP served as low controls. After 4 hours of incubation, 20 μL of the supernatant was transferred to a 384 well plate. AMP level in supernatant was measured indirectly by adding 5 μL of CellTiter-Glo® 2.0 reagent and 5 μL of ATP with a final concentration of 1 μM. Following incubation of plate at room temperature for 30 minutes, luminescent signal was read on a Tecan plate reader. The percentage inhibition at individual concentrations relative to high and low controls was calculated. The data were analyzed by using nonlinear regression to generate IC50 values.

[1] = biological target: T2, Human CD73 (amino acid residues 27-549) (Homo sapiens, UniProt P21589); assay: CD73 enzymatic assay (luciferase-based indirect assay, CellTiter-Glo); type: biochemical; conditions: 0.4 nM CD73, 150 μM AMP, 1 hour at room temperature
T2 construct: Human CD73 (amino acid residues 27-549); His tag (N); made in house; host or cells: E. coli
T2 sequence (P21589 27-549): T1 sequence (P21589 27-549)
In short: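 Residual AMP inhibits luciferase, so luminescence reports CD73 turnover; read with CellTiter-Glo 2.0 plus 1 μM final ATP, 30 min. Reaction used 0.4 nM N-His CD73 (27-549, E. coli), 150 μM AMP, HEPES pH 7.4 with Tween 20, 1 h at room temperature. IC50 fitted by nonlinear regression.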

SMILES | IC50 (human CD73) [µM] | IC50 [1] [µM]
Cc1ncoc1C(=O)N1CCC(NC(=O)O[C@@H]2CCN(c3cn[nH]c(=O)c3Cl)C2)CC1 [P-0503, (R)-1-(5-chloro-6-oxo-1,6-dihydropyridazin-4-yl)pyrrolidin-3-yl (1-(4-methyloxazole-5-carbonyl)piperidin-4-yl)carbamate] | 0.001 to 10 | 0.001 to 10
CN1CCC(NC(=O)O[C@@H]2CCN(c3cn[nH]c(=O)c3Cl)C2)CC1=O (stereo partly drawn) [P-0281, (R)-1-(5-chloro-6-oxo-1,6-dihydropyridazin-4-yl)pyrrolidin-3-yl (1-methyl-2-oxopiperidin-4-yl)carbamate] | 0.001 to 10 | 0.001 to 10
C[C@H]1CN(c2cn[nH]c(=O)c2Cl)C[C@@H]1NC(=O)NC1CCCCC1 [P-0062, 1-((3R,4S)-1-(5-chloro-6-oxo-1,6-dihydropyridazin-4-yl)-4-methylpyrrolidin-3-yl)-3-cyclohexylurea] | 10 to 100 | 0.001 to 10
O=C(NCC1CCCC1)O[C@@H]1CCN(c2cn[nH]c(=O)c2Cl)C1 [P-0095, (R)-1-(5-chloro-6-oxo-1,6-dihydropyridazin-4-yl)pyrrolidin-3-yl (cyclopentylmethyl)carbamate] | 0.001 to 10 | 0.001 to 10
N#Cc1ccc(S(=O)(=O)N[C@H]2CC[C@H](NC(=O)O[C@@H]3CCN(c4cn[nH]c(=O)c4Cl)C3)CC2)cc1 [P-0248, (R)-1-(5-chloro-6-oxo-1,6-dihydropyridazin-4-yl)pyrrolidin-3-yl ((1r,4R)-4-((4-cyanophenyl)sulfonamido)cyclohexyl)carbamate] | 0.001 to 10 | 0.001 to 10
C#CC1(NC(=O)O[C@@H]2CCN(c3cn[nH]c(=O)c3Cl)C2)CCCCC1 [P-0436, (R)-1-(5-chloro-6-oxo-1,6-dihydropyridazin-4-yl)pyrrolidin-3-yl (1-ethynylcyclohexyl)carbamate] | 0.001 to 10 | 0.001 to 10
O=C(NC1CCN(C(=O)c2cccnc2Cl)CC1)O[C@@H]1CCN(c2cn[nH]c(=O)c2Cl)C1 [P-0417, (R)-1-(5-chloro-6-oxo-1,6-dihydropyridazin-4-yl)pyrrolidin-3-yl (1-(2-chloronicotinoyl)piperidin-4-yl)carbamate] | 0.001 to 10 | 0.001 to 10
CC(C)(C)C(=O)N[C@H]1CC[C@H](NC(=O)O[C@@H]2CCN(c3cn[nH]c(=O)c3Cl)C2)CC1 [P-0262, (R)-1-(5-chloro-6-oxo-1,6-dihydropyridazin-4-yl)pyrrolidin-3-yl ((1r,4R)-4-pivalamidocyclohexyl) carbamate] | 0.001 to 10 | 0.001 to 10
O=C(NC1CCC1)O[C@@H]1CCN(c2cn[nH]c(=O)c2Cl)C1 [P-0516, (R)-1-(5-chloro-6-oxo-1,6-dihydropyridazin-4-yl)pyrrolidin-3-yl cyclobutylcarbamate] | 0.001 to 10 | 0.001 to 10
CC(C)(C)C(=O)N[C@H]1CC[C@@H](NC(=O)O[C@@H]2CCN(c3cn[nH]c(=O)c3Cl)C2)CC1 [P-0327, (R)-1-(5-chloro-6-oxo-1,6-dihydropyridazin-4-yl)pyrrolidin-3-yl ((1s,4S)-4-pivalamidocyclohexyl) carbamate] | 0.001 to 10 | 0.001 to 10
O=C(NC1(C2CC2)CC1)O[C@@H]1CCN(c2cnn(CCO)c(=O)c2Cl)C1 [P-0480, (R)-1-(5-chloro-1-(2-hydroxyethyl)-6-oxo-1,6-dihydropyridazin-4-yl)pyrrolidin-3-yl [1,1′-bi(cyclopropan)]-1-ylcarbamate] | 0.001 to 10 | 0.001 to 10
CS(=O)(=O)NCC(=O)N1CCC(NC(=O)O[C@@H]2CCN(c3cn[nH]c(=O)c3Cl)C2)CC1 [P-0163, (R)-1-(5-chloro-6-oxo-1,6-dihydropyridazin-4-yl)pyrrolidin-3-yl (1-((methylsulfonyl)glycyl)piperidin-4-yl)carbamate] | 0.001 to 10 | 0.001 to 10
O=C(NC1CCN(C(=O)c2ccno2)CC1)O[C@@H]1CCN(c2cn[nH]c(=O)c2Cl)C1 [P-0371, (R)-1-(5-chloro-6-oxo-1,6-dihydropyridazin-4-yl)pyrrolidin-3-yl (1-(isoxazole-5-carbonyl)piperidin-4-yl)carbamate] | 0.001 to 10 | 0.001 to 10
